Source: PubChem BioAssay AID2060885 (Molecular Pharmacology Branch, DTP, NCI, 2025)

Test system: NCI-H23 complex spheroids with HUVEC/MSC, viability
Assay: Anticancer human tumor NCI-H23 cell line growth inhibition [RAS];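 further: spheroids exposed to compound for 7 days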;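 on viability, T/C: 100% = DMSO vehicle control viability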
Details: for IC50: curve of first compound; for viability, T/C: stronger effect = lower value
Outline: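 Multi-cell-type spheroids: tumor cells plus HUVEC endothelial cells and mesenchymal stem cells. RAS-pathway inhibitors were combined with targeted agents, each dosed in half-log steps down from clinical Cmax, or from 10 microM when Cmax was unknown.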

With `CC1(O)CCCC1n1c(=O)c(C(F)F)cc2cnc(NC3CCN(S(C)(=O)=O)CC3)nc21` (configuration not stated) + CCn1c(-c2cccnc2C(C)OC)c2c3cc(ccc31)N1CCOC(CC(NC(=O)C(C(C)C)N(C)C(=O)C3(F)CCN(C(=O)C#CC(C)(C)N(C)C)CC3)C(=O)N3CCCC(N3)C(=O)OCC(C)(C)C2)C1 the IC50 (second compound 0.000949 µM) was less than 31.6 nM, the IC50 (second compound 0.003 µM) was less than 31.6 nM and the IC50 (second compound 0.00949 µM) was less than 31.6 nM. For the same compound, the IC50 (second compound 0.03 µM) was less than 31.6 nM, the IC50 (second compound 0.0949 µM) was less than 31.6 nM and the IC50 (second compound 0.3 µM) was less than 31.6 nM. The viability, T/C (second compound 0.000949 µM, first compound 0.0316 µM) was 27.5%, the viability, T/C (second compound 0.000949 µM, first compound 0.1 µM) was 18.5% and the viability, T/C (second compound 0.000949 µM, first compound 0.316 µM) was 15%. The viability, T/C (second compound 0.000949 µM, first compound 1 µM) was 21.3%, the viability, T/C (second compound 0.000949 µM, first compound 3.16 µM) was 18.9% and the viability, T/C (second compound 0.000949 µM, first compound 10 µM) was 1.72%. It also gave a viability, T/C (second compound 0.003 µM, first compound 0.0316 µM) of 24.7%, a viability, T/C (second compound 0.003 µM, first compound 0.1 µM) of 16.5% and a viability, T/C (second compound 0.003 µM, first compound 0.316 µM) of 17.4%. The viability, T/C (second compound 0.003 µM, first compound 1 µM) was 17.5%, the viability, T/C (second compound 0.003 µM, first compound 3.16 µM) was 20.4% and the viability, T/C (second compound 0.003 µM, first compound 10 µM) was 1.47%. It also gave a viability, T/C (second compound 0.00949 µM, first compound 0.0316 µM) of 25.2%, a viability, T/C (second compound 0.00949 µM, first compound 0.1 µM) of 14.7% and a viability, T/C (second compound 0.00949 µM, first compound 0.316 µM) of 15.8%. The viability, T/C (second compound 0.00949 µM, first compound 1 µM) was 17.1%, the viability, T/C (second compound 0.00949 µM, first compound 3.16 µM) was 17.4% and the viability, T/C (second compound 0.00949 µM, first compound 10 µM) was 2.12%. The viability, T/C (second compound 0.03 µM, first compound 0.0316 µM) was 23%, the viability, T/C (second compound 0.03 µM, first compound 0.1 µM) was 16.8% and the viability, T/C (second compound 0.03 µM, first compound 0.316 µM) was 15.1%. For the same compound, the viability, T/C (second compound 0.03 µM, first compound 1 µM) was 18.7%, the viability, T/C (second compound 0.03 µM, first compound 3.16 µM) was 14.6% and the viability, T/C (second compound 0.03 µM, first compound 10 µM) was 2.81%. It also gave a viability, T/C (second compound 0.0949 µM, first compound 0.0316 µM) of 19.2%, a viability, T/C (second compound 0.0949 µM, first compound 0.1 µM) of 17.1% and a viability, T/C (second compound 0.0949 µM, first compound 0.316 µM) of 17.8%. For the same compound, the viability, T/C (second compound 0.0949 µM, first compound 1 µM) was 15.5%, the viability, T/C (second compound 0.0949 µM, first compound 3.16 µM) was 14.9% and the viability, T/C (second compound 0.0949 µM, first compound 10 µM) was 2.88%. It also gave a viability, T/C (second compound 0.3 µM, first compound 0.0316 µM) of 19.5%, a viability, T/C (second compound 0.3 µM, first compound 0.1 µM) of 16.9% and a viability, T/C (second compound 0.3 µM, first compound 0.316 µM) of 15.1%. For the same compound, the viability, T/C (second compound 0.3 µM, first compound 1 µM) was 16.7%, the viability, T/C (second compound 0.3 µM, first compound 3.16 µM) was 15.6% and the viability, T/C (second compound 0.3 µM, first compound 10 µM) was 2.05%.
